Results reported in patent publication US20070299103A1, “[1,2,4]Triazolo[4,3-A]Pyridine Derivatives for the Treatment of Hyperproliferative Diseases” (priority 2004, published 2007).

Tests used:
[1] = target: human MEK1 (Homo sapiens, UniProt Q02750); assay: Inhibition of human MEK1 kinase activity, TR-FRET assay; assay type: biochemical; settings: 100 nM MEK1, 15 μM ATP, 300 nM ERK2, two hours; read-out: Inhibition of MEK, Activity (IC50)
Description: The activity of the compounds of the present invitation may be determined by the following procedure: Inhibition of human MEK1 kinase activity was monitored with a homogenous, fluorescence based assay. The assay uses time resolved fluorescence resonance energy transfer to probe for phosphorylation of ERK1 by MEK1. The assay is carried out in low volume 96 well microtiterplates. In a total volume of 15 μl, compounds are incubated with 100 nM MEK1, 15 μM ATP, 300 nM ERK2 employing a buffer containing 20 mM TRIS/HCl, 10 mM MgCl2, 100 μM NaVO4, 1 mM DTT, and 0.005% Tween 20 (pH 7.4). After two hours, 5 nM Europium-anti-PY20 (Perkin Elmer) and 50 nM Anti-GST-Allophycocyanin (CisBio) in buffer containing 50 mM EDTA and 0.05% BSA are added and the reaction incubated for one hour in the dark. Time-resolved fluorescence is measured using a LJL-Analyst (Molecular Devices) with an excitation wavelength of 340 nm and an emission wavelength of 665 nm. The final concentration of DMSO is 2%. To assess the inhibitory potential of the compounds, IC50-values were determined.
The following compounds exemplify such activity with “+” meaning 1 μM<IC50≦10 μM and “++” IC50≦1 μM

[2] = test system: Murine colon C26 cells; assay: Tumor cell proliferation assay (ATP Lite), C26; assay type: cell-based; settings: 4 days incubation
Description: (§1) Murine colon C26, human melanoma A375 and human melanoma Mel5 cells were plated in 96 well Corning white plates (1500 cells/well for C26, and 2000 cells/well for A375, and MiaPaCa-2) and cultured overnight at 37° C. in 5% CO2. Inhibitors were serially diluted in 100% DMSO and subsequently added to cells to reach a final concentration of 0.25% DMSO. The cells were incubated for 4 days in the presence of test compounds in cell growth media (DMEM with 10% fetal bovine serum, 2 mM glutamine for C26, and MiaPaCa-2, and RPMI with 10% fetal bovine serum, 2 mM glutamine for A375). Cell proliferation was quantitated using the ATP lite cell proliferation kit (Packard). Columns 2-4 show the concentration of compounds required to induce 50% cell death (IC50 in μM) of human endometriotic cells. With “+” meaning 100 μM<IC50≦10 μM and “++” IC50≦1 μM and “n.d.” means not determined.

[3] = test system: human melanoma Mel5 cells; assay: Tumor cell proliferation assay (ATP Lite), Mel5; assay type: cell-based; settings: 4 days incubation
Description: as §1

[4] = test system: human melanoma A375 cells; assay: Tumor cell proliferation assay (ATP Lite), A375; assay type: cell-based; settings: 4 days incubation
Description: as §1

[5] = Microsomal stability assay, human liver microsomes; assay type: in vitro ADME; settings: pooled human liver microsomes, pH 7.4; 3 μM compound, 0.5 mg/ml human liver microsomes, 37° C., 2 mM NADPH; read-out: HLM t½
Description: (§2) Compounds were tested on their stability in human, rat and mouse liver microsomal preparations (HLM, RLM and MLM respectively). At a final concentration of 3 μM, compounds were incubated at 37° C. with 0.5 mg/ml human, rat or mouse liver microsomes in a buffer containing 50 mM phosphate, pH 7.4 and 2 mM NADPH. Pooled human liver microsomes or pooled male rat liver microsomes (Sprague Dawley) were obtained from NatuTec (Frankfurt, Germany). Incubations without NADPH served as negative controls. Reactions were stopped after 0, 15, 30, 45 or 60 min by the addition of acetonitrile and microsomes were pelleted by centrifugation (10 min at 6200×g). Supernatants were analyzed by HPLC regarding the concentration of mother compound. Finally, the half-life of compounds in the regarding microsomal preparation was calculated.

[6] = Microsomal stability assay, rat liver microsomes; assay type: in vitro ADME; settings: male, Sprague Dawley, pooled rat liver microsomes, pH 7.4; 3 μM compound, 0.5 mg/ml rat liver microsomes, 37° C., 2 mM NADPH; read-out: RLM t½
Description: as §2

[7] = test system: Caco-2 cells; assay: Caco-2 permeability assay; assay type: in vitro ADME; settings: 10 μM, pH 7.4, 120 minutes
Description: Caco-2 cells obtained from the ATCC at passage number 27 are used. Cells (passage number 40-60) were seeded on to Millipore Multiscreen Caco-2 plates or Falcon HTS inserts at 1×10^5 cells/cm2. Cells were cultured for 20 days in DMEM and media was changed every two or three days. On day 20 the permeability study was performed.
Permeability was studied by applying compound to the apical surface of cell monolayers and measuring compound permeation into the basolateral compartment. The experiment was also performed in the reverse direction (B-A) to investigate active transport. […]
HBSS was then removed from the apical compartment and replaced with test compound dosing solutions. […] Test compound permeability was assessed in duplicate. […]
The integrity of the monolayers throughout the experiment is checked by monitoring lucifer yellow permeation using fluorimetric analysis. […] Test and control compounds were quantified by LC-MS/MS cassette analysis using a 5-point calibration with appropriate dilution of the samples. […]
The permeability coefficient for each compound (Papp) was calculated from the following equation: Papp=[dQ/dt]/[C0×A] […]
Wherein “+” means a caco A-B and caco B-A value of 1-10 and “++” means a caco A-B and caco B-A value of 11-100 and “n.d.” means not determined.

[8] = test system: Tumors; settings: patients; cited from earlier work
[9] = in vivo; cited from earlier work

human MEK1, sequence (Q02750 whole entry): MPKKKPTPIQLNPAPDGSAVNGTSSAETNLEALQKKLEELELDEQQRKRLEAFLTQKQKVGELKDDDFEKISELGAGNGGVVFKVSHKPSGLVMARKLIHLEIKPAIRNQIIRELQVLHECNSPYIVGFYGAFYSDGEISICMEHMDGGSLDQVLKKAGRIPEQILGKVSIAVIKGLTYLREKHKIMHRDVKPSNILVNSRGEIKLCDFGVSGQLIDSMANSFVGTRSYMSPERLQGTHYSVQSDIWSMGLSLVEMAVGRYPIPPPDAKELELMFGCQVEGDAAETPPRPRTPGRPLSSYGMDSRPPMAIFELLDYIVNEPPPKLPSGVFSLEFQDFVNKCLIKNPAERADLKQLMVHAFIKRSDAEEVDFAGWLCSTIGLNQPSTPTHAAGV

| Structure (SMILES) | IC50 [1] [nM] | C26 cells IC50 [2] | Mel5 cells IC50 [3] | A375 cells IC50 [4] | half-life at 3 μM [5] [h] | half-life at 3 μM [6] [h] | Caco A-B ([7]; apical to basolateral) | Caco B-A ([7]; basolateral to apical) | efficacy in clinical phase II trials [8] | bioavailability [9] |
| --- | --- | --- | --- | --- | --- | --- | --- | --- | --- | --- |
| Cc1cc(Br)ccc1Nc1cc2nnc(C)n2cc1C(=O)O [Compound 2a, 7-[(4-Bromo-2-methylphenyl)amino]-3-methyl[1,2,4]triazolo[4,3-a]pyridine-6-carboxylic acid] | 1000 to 10000 | + (100 μM<IC50≦10 μM) | + (100 μM<IC50≦10 μM) | + (100 μM<IC50≦10 μM) | – | – | – | – | – | – |
| Cc1cc(Br)ccc1Nc1cc2nnc(C)n2cc1C(=O)NO [Compound 3a, 7-[(4-Bromo-2-methylphenyl)amino]-N-hydroxy-3-methyl[1,2Z4]triazolo[4,3-a]pyridine-6-carboxamide] | ≤ 1000 | + (100 μM<IC50≦10 μM) | + (100 μM<IC50≦10 μM) | + (100 μM<IC50≦10 μM) | – | – | – | – | – | – |
| Cc1cc(Br)ccc1Nc1cc2nnc(C)n2cc1C(=O)NOC[C@@H](O)CO [Compound 3b, 7-[(4-Bromo-2-methylphenyl)amino]-N-([(2S)-2,3-dihydroxypropyl]oxy)-3-methyl[1,2,4]triazolo[4,3-a]pyridine-6-carboxamide] | 1000 to 10000 | + (100 μM<IC50≦10 μM) | + (100 μM<IC50≦10 μM) | + (100 μM<IC50≦10 μM) | > 2 | > 2 | + (a caco A-B and caco B-A value of 1-10) | + (a caco A-B and caco B-A value of 1-10) | – | – |
| Cc1cc(I)ccc1Nc1cc2nnc(C)n2cc1C(=O)NOC[C@H](O)CO [Compound 3c, 7-[(4-Iodo-2-methylphenyl)amino]-N-([(2R)-2,3-dihydroxypropyl]oxy)-3-methyl[1,2,4]triazolo[4,3-a]pyridine-6-carboxamide] | ≤ 1000 | – | – | – | – | – | – | – | – | – |
| O=C(NOCC1CC1)c1ccc(F)c(F)c1Nc1ccc(I)cc1Cl [PD-184352] | – | – | – | – | – | – | – | – | lacking efficacy | low bioavailability |
